Values of other authors, collected in article PMC10017685 (Nature Communications, 2023).

Legend:
erythrocytes = conditions: cited from earlier work
From the text: Supplement 41467_2023_36994_MOESM6_ESM.xlsx, sheet "MD calibration" | column: Hemolytic activity (HC50); Comment

S. aureus ATCC 29212 = conditions: ref https://dbaasp.org/peptide-card?id=8199; cited from earlier work
From the text: page 7: Reviewer #2 (Remarks to the Author): The authors present a new method, HydrAMP, for antimicrobial peptide generation. The generative model of HydrAMP is a decoder, which produces a distribution over peptides in order to mimic the synthesis of the antimicrobial peptides in biological experiments. HydrAMP is the first model trained and used to identify active analogs of non-AMP prototypes. During training, they introduce an additional encoder to provide a variational approximation to help optimize the decoder. Their method is based on the conditional VAE model, which provides the foundat ...

E. coli ATCC 25922 = conditions: ref https://dbaasp.org/peptide-card?id=8199; cited from earlier work

Sequence | Comment: toxicity (erythrocytes) | MIC S. aureus ATCC 29212 (S. aureus ATCC 29212) [µM] | MIC E. coli ATCC 25922 (E. coli ATCC 25922) [µM]
FFHHIFRGIVHVGKTIHRLVTG [Piscidin 1] | Active broad spetrum, toxic | – | –
FFSLIPSLVGGLISAFK [Stigmurin] | – | 8.68 | > 139
